Entries after “also recorded” stand apart in the source; their conditions may differ.
Experiments:
[1] = system: effect of acetylcholine on bladder; experiment: Inhibition of the effect of acetylcholine on the bladder (contraction of the exposed bladder), anaesthetised guinea-pigs; format: in vivo; details: Cavia porcellus, iv, 5 min; anaesthetised guinea-pig; 10 μg/kg acetylcholine i.v. and intraarterially 5 minutes after test substance; read-out: -log DE50 Bladder (converted)
Description: (§1) 5 minutes after administration of the test substance to anaesthetised guinea-pigs, 10 μg/kg of acetylcholine was injected intravenously and, at the same time, intraarterially. At the same time, the heart rate was recorded by extracorporeal derivation of the ECG, the respiratory passage resistance by Konzett-Rossler and the contraction of the exposed bladder directly. For the inhibition of the effect of acetylcholine on the organs examined, dosage-activity curves were recorded and -log ED50 values were determined therefrom.

[2] = system: effect of acetylcholine on heart rate; experiment: Inhibition of the effect of acetylcholine on the heart rate (ECG), anaesthetised guinea-pigs; format: in vivo; details: Cavia porcellus, iv, 5 min, anaesthetised guinea-pig, 10 μg/kg acetylcholine i.v. and intraarterially 5 minutes after test substance, read-out: -log DE50 Heart (converted)
Description: as §1

[3] = target: T1, muscarinic receptors, heart (M2) (Rattus norvegicus, UniProt P10980); experiment: Receptor binding test in vitro, 3H-N-methylscopolamine, heart (M2); set-up: species or system Sprague-Dawley rat
T1 construct: After removing the heart, submandible and cerebral cortex; from tissue; host or cells: Sprague-Dawley rat entire heart homogenate
T1 sequence (P10980 1-466): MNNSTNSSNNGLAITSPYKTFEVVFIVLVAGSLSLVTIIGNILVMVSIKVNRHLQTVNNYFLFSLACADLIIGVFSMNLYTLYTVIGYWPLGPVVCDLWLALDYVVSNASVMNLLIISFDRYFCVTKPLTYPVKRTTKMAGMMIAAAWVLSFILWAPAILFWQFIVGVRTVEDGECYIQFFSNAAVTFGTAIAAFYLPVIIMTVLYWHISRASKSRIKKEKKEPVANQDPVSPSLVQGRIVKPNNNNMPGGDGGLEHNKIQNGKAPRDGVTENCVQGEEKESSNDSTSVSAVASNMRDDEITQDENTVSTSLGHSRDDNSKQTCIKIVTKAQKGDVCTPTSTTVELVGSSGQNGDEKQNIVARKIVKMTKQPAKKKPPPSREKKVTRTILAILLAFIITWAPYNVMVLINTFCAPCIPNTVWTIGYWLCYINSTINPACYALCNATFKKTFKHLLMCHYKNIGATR
Description: (§2) Sprague-Dawley rats having body weights of 180-220 g were used as organ donors. After removing the heart, submandible and cerebral cortex, all further steps were carried out in ice-cold Hepes-HCl buffer (pH 7.4; 100 m molar NaCl, 10 m molar MgCl2). The entire heart was comminuted using a pair of scissors. All organs were then homogenised in a Potter.
(§3) For the binding test, the organ homogenates were diluted in the following manner(ratio by volume):
(§4) The incubation of the organ homogenates was carried out at a defined concentration of the radioligand and a number of concentrations of the non-radioactive test substances in Eppendorf centrifuge tubes at 30° C. The incubation period was 45 minutes. 0.3 nanomolar ^3 H-N-methylscopolamine (^3 H-NMS, heart and submandible) or 1 nanomolar ^3 H-pirenzepine (^3 H-PZ, cerebrum) were used as the radioligand. The incubation was ended by addition of ice-cold buffer with subsequent vacuum filtration. The filter was washed with cold buffer and its radioactivity was determined. This represents the total of specific and non-specific binding of ^3 H-NMS or ^3 H-PZ. The proportion of non-specific binding was defined as that radioactivity which was bound in the presence of 1μ molar quinuclidinylbenzylate. Four-fold determinations were always carried out. The IC50 values of non-labelled test substances were determined graphically. They represent that concentration of the test substance at which the specific binding of ^3 H-NMS or ^3 H-PZ to the muscarinic receptors in the various organs was inhibited by 50%.

[4] = target: T2, muscarinic receptors, submandible (M3) (Rattus norvegicus, UniProt P08483); experiment: Receptor binding test in vitro, 3H-N-methylscopolamine, submandible (M3); set-up: species or system Sprague-Dawley rat; details: 0.3 nanomolar 3H-N-methylscopolamine, rat submandible homogenate, 30° C., 45 minutes, pH 7.4; read-out: IC50 3H-NMS Submandible (M3)
T2 construct: After removing the heart, submandible and cerebral cortex; from tissue; host or cells: Sprague-Dawley rat submandibular gland ('submandible') homogenate
Description: as §2, §3, §4

[5] = target: T3, muscarinic receptors, cortex (M1) (Rattus norvegicus, UniProt P08482); experiment: Receptor binding test in vitro, 3H-pirenzepine, cerebral cortex (M1); set-up: species or system Sprague-Dawley rat; details: for IC50: 1 nanomolar 3H-pirenzepine, rat cerebral cortex homogenate, 30° C., 45 minutes, pH 7.4, read-out: IC50 3H-PZ Cortex (M1); for M1-selectivity in receptor binding studies (in words): cortex M1 compared to heart and submandible
T3 construct: After removing the heart, submandible and cerebral cortex; from tissue; host or cells: Sprague-Dawley rat cerebral cortex homogenate
T3 sequence (P08482 1-460): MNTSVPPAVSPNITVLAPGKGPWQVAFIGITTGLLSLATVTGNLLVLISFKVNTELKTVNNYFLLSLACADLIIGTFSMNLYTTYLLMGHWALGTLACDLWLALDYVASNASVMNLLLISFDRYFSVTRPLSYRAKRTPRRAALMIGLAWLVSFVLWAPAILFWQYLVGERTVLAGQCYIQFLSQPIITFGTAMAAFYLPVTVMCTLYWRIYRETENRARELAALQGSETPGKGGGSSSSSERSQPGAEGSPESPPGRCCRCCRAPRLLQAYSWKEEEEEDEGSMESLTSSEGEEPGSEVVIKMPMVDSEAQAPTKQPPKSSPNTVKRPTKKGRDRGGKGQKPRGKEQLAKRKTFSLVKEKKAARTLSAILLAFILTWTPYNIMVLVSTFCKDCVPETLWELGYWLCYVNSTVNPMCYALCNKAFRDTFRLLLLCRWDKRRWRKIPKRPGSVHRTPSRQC
Description: as §2, §3, §4

[6] = system: effect of acetylcholine on bronchi; experiment: Inhibition of the effect of acetylcholine on the bronchi (respiratory passage resistance, Konzett-Rossler), anaesthetised guinea-pigs; format: in vivo, guinea-pig; details: for ED50: Cavia porcellus, iv, 5 min, read-out: -log DE50 Bronchi; for selectivity of inhibition of acetylcholine-induced bronchoconstriction versus effects on heart and bladder (in words): bronchi compared to heart and bladder, guinea-pig
Description: as §1

T2 sequence (P08483 whole entry): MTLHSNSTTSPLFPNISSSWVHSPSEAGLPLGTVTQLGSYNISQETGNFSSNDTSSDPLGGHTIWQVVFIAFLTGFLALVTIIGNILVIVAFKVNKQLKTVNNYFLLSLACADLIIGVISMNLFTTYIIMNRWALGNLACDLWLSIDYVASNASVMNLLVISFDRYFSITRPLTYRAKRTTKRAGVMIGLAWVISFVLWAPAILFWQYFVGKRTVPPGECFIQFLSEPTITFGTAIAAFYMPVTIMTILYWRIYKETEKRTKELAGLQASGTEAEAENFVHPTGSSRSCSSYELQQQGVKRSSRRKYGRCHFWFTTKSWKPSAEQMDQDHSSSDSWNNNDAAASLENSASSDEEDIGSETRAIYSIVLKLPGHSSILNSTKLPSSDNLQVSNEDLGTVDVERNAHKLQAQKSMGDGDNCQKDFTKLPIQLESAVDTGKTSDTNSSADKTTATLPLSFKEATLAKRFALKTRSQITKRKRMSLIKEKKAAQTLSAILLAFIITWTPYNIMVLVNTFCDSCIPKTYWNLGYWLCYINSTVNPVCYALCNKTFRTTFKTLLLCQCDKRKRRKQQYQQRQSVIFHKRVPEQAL

| Structure (SMILES) | ED50 [1] | ED50 [2] | IC50 [3] | IC50 [4] | IC50 [5] | M1-selectivity in receptor binding studies (in words) [5] | ED50 [6] | selectivity of inhibition of acetylcholine-induced bronchoconstriction versus effects on heart and bladder (in words) [6] |
| --- | --- | --- | --- | --- | --- | --- | --- | --- |
| CN1CCC(NC(=O)C2c3ccccc3NC(=O)c3ccccc32)CC1 (racemic) [Substance A, 5,11-dihydro-11-[[(1-methyl-4-piperidinyl)amino]carbonyl]-6H-dibenz[b,e]azepin-6-one] | 0.537 µmol/kg | 0.955 µmol/kg | 0.4 µM | 0.07 µM | 0.006 µM | marked M1 -selectivity; also recorded: lower IC50 values for the cortex M1 receptor compared to muscarinic receptors in preparations of the heart and submandible; also recorded: M1 -selectivity in in vitro receptor binding studies | 0.055 µmol/kg | marked selectivity for the inhibition of the bronchoconstriction; also recorded: even at dosages at which no effects on the heart and bladder are observed; also recorded: more strongly inhibit the cholinergically induced bronchoconstriction in functional tests than frequency effects on the heart or the bladder contraction |
| CN1CCC(CC(=O)C2c3ccccc3NC(=O)c3ccccc32)CC1 (racemic) [Substance B, 5,11-dihydro-11-[(1-methyl-4-piperidinyl)acetyl]-6H-dibenz[b,e]azepin-6-one] | 0.813 µmol/kg | 0.851 µmol/kg | 0.042 µM | 0.013 µM | 0.0025 µM | marked M1 -selectivity; also recorded: lower IC50 values for the cortex M1 receptor compared to muscarinic receptors in preparations of the heart and submandible; also recorded: M1 -selectivity in in vitro receptor binding studies | 0.182 µmol/kg | marked selectivity for the inhibition of the bronchoconstriction; also recorded: even at dosages at which no effects on the heart and bladder are observed; also recorded: more strongly inhibit the cholinergically induced bronchoconstriction in functional tests than frequency effects on the heart or the bladder contraction |
| CN1CCN(CC(=O)C2c3ccccc3NC(=O)c3ccccc32)CC1 (racemic) [Substance C, 5,11-dihydro-11-[(4-methyl-1-piperazinyl)acetyl]-6H-dibenz[b,e]azepin-6-one] | 5.37 µmol/kg | 1.78 µmol/kg | 0.8 µM | 0.1 µM | 0.008 µM | marked M1 -selectivity; also recorded: lower IC50 values for the cortex M1 receptor compared to muscarinic receptors in preparations of the heart and submandible; also recorded: M1 -selectivity in in vitro receptor binding studies | 0.275 µmol/kg | marked selectivity for the inhibition of the bronchoconstriction; also recorded: even at dosages at which no effects on the heart and bladder are observed; also recorded: more strongly inhibit the cholinergically induced bronchoconstriction in functional tests than frequency effects on the heart or the bladder contraction |
| CN1CCC(NC(=O)C2c3ccccc3NC(=O)c3ccccc32)CC1 (single isomer, unassigned; (+)) [Substance D, (+)-5,11-dihydro-11-[[(1-methyl-4-piperidinyl)amino]carbonyl]-6H-dibenz[b,e]azepin-6-one] | 0.309 µmol/kg | 0.407 µmol/kg | 0.3 µM | 0.05 µM | 0.003 µM | marked M1 -selectivity; also recorded: lower IC50 values for the cortex M1 receptor compared to muscarinic receptors in preparations of the heart and submandible; also recorded: M1 -selectivity in in vitro receptor binding studies | 0.0331 µmol/kg | even at dosages at which no effects on the heart and bladder are observed; also recorded: more strongly inhibit the cholinergically induced bronchoconstriction in functional tests than frequency effects on the heart or the bladder contraction |
